The structures appear in SMILES notation.

Type in all cases: in vivo, C57BL/6J mice
One experiment concerns D5D. Nature of the experiment: Blood fatty acids (PD markers AA, DGLA, EPA, DHA) after 6-week treatment in DIO mice. The following applies: compound-326 0.1, 1, 10 mg/kg, 6 weeks. The method, then: (§1) Fatty acids were extracted from blood and tissues by adding hexane-isopropanol-butylated hydroxytoluene (60:40:0.01, v/v/w). Samples were vortexed for 30 min. The hexane phase was removed and evaporated to dryness under nitrogen stream and vacuum. Dried samples were dissolved in methanol and analyzed by HPLC.
(§2) Mice were fed a high-fat diet (HFD) that has 60% kcal from fat and contains 0.09% (w/w) AA (D12492; Research diets, Inc., see S1 Table for fatty acid profile) from 5 weeks of age, and they were divided into 5 groups (7 animals per group) at 11 weeks of age based on BW and daily food intake. In this experiment, 30 mg/kg sibutramine, a […], was used as a positive control for anti-obesity effects. Mice were orally administered compound-326 at doses of 0.1, 1, and 10 mg/kg, sibutramine at a dose of 30 mg/kg, or vehicle for 6 weeks. After 6 weeks, blood concentrations of DGLA and AA under non-fasting condition were evaluated as pharmacodynamics (PD) markers, and oral glucose tolerance test (OGTT) was performed.

The test system of experiment [1] is DIO mice. Kind of experiment: Oral glucose tolerance test and HOMA-IR after 6-week treatment in DIO mice. The method, then:
as §2
On the last day of the experiment, mice were given an oral glucose load (2 g/kg) after overnight fasting. Blood samples were collected at specified time points of 0 (pre-glucose/fasting glucose levels), 10, 30, 60, and 120 min post glucose load for the determination of plasma glucose as well as insulin levels. Plasma glucose was enzymatically measured with auto-analyzer 7180 (Hitachi High-Technologies Corporation, Tokyo, Japan). Plasma insulin was measured with mouse insulin ELISA kit (Shibayagi, Gunma, Japan). The total area under the glucose curve was determined from time 0 to 120 min (AUC0–120 min) after glucose administration. Homeostasis model assessment-insulin […] (HOMA-IR) was calculated using the formula: [(fasted PG: mg/dL)×(fasted insulin; μU/mL)[…]/405] [28].

Experiment [2] has as its system DIO mice. Nature of the experiment: 6-week treatment of HFD (D12079B)-fed DIO mice: BW and blood/tissue fatty acids. The method, then:
as §1
(§3) Mice fed a HFD that has 41% kcal from fat and contains no AA (D12079B; Research diets, Inc.) from 5 weeks of age were divided into 2 groups at the age of 8 weeks (8 animals per group), and were administered 10 mg/kg compound-326 or vehicle for 6 weeks. After the treatment period, mice were sacrificed and epididymal and subcutaneous fats were harvested for mRNA analysis. Nine animals maintained on a standard chow (CE2, CLEA Japan, Osaka) were used as control.

In a further experiment the test system is fat tissues of DIO mice. Kind of experiment: RT-qPCR gene expression in epididymal and subcutaneous fat of DIO mice after 6-week treatment. The following applies: 10 mg/kg, 6 weeks. The method, then:
as §3
Total RNA was extracted and purified using RNeasy Mini Kit (QIAGEN, USA). First-strand cDNA was synthesized using High Capacity cDNA Reverse Transcription Kits (Thermo Fisher, USA). The mRNA levels were quantified by an ABI Prism 7900 TaqMan PCR system (Thermo Fisher, USA) according to the manufacturer’s instruction using TaqMan® Universal PCR Mastermix with the primer-probe sets of TaqMan Gene Expression Assays (Thermo Fisher, USA) for the following genes: Ccl2 (chemokine (C-C motif) ligand 2; Mm99999056_m1), Cd68 (CD68 antigen; Mm03047343_m1), Adgre1 (adhesion G protein-coupled receptor E1; Mm00802529_m1), Tnf (tumor necrosis factor; Mm00443258_m1), Il6 (interleukin 6; Mm99999064), Lep (leptin; Mm00434759_m1), Adipoq (adiponectin; Mm00456425_m1), Fads2 ([…]; Mm00517221_m1), Fads1 ([…]; Mm00507605_m1), Ucp1 (uncoupling protein 1; Mm00494069_m1), Elovl3 (elongation of very long chain fatty acids 3; Mm00468164_m1), Cidea (cell death-inducing DNA fragmentation factor, alpha subunit-like effector A; Mm00432554_m1), Otop1 (otopetrin 1; Mm00554705_m1), and Rplp0 (ribosomal protein, large, P0; forward; 5'-[…]-3', reverse; 5'-[…]-3', probe (VIC-5'→3'-TAMRA); 5'-[…]-3'). The Rplp0 mRNA level was used as a reference and relative transcript levels were calculated with the comparative Ct method (2^-ΔΔCT) (Applied Bio-systems).
On the technique in general: In qPCR the cycle at which signal appears reflects the starting amount.

The mark [3] stands for this setting: 10 mg/kg, after 6-week treatment.

For the compound `O=C1Cc2c(nc(OCC(F)(F)C(F)(F)F)n(-c3ccc(OCC(F)(F)F)cc3)c2=O)N1` [Compound-326, 2-(2,2,3,3,3-Pentafluoropropoxy)-3-[4-(2,2,2-trifluoroethoxy)phenyl]-5,7-dihydro-3H-pyrrolo[2,3-d]pyrimidine-4,6-dione], in the experiment with D5D, the “blood AA to DGLA ratio” value was “decreased significantly”. Further, in the experiment with D5D (dose dependent), the “blood level of DHA” value is recorded as “decreased” and the “blood level of EPA” value is listed as “decreased”. Also, in the experiment on D5D (dose-dependent, non-fasting), the “blood AA” value is on record as “decreased” and the “blood DGLA” value was “increased”. Further, the HOMA-IR result in the experiment with DIO mice [1] (compound-326 0.1, 1, 10 mg/kg, after 6-week treatment, dose-dependent) is reported as “decreased”. Also, the “insulin levels (OGTT)” value with DIO mice [1] (compound-326, after 6-week treatment) is recorded as “no change”. The “glucose tolerability and insulin sensitivity” value in the experiment with DIO mice [1] (observed from dose of 1 mg/kg without a significant decrease in BW) is “improvement”. In the experiment on DIO mice [2] (10 mg/kg p.o., 6 weeks), the “AA to DGLA ratio in epididymal fat” value is listed as “significantly decreased”; the “AA to DGLA ratio in the blood” value was “decrease”; the “AA to DGLA ratio in the liver” value is reported as “significantly decreased”; the “n-3 PUFA (EPA and DHA) in blood, liver, and adipose tissue” value is “significantly decreased”. In the experiment with DIO mice [2] (10 mg/kg p.o., 6 weeks, vs vehicle), the BW result was “significantly decreased”. Besides, in the experiment on DIO mice [2] (setting [3]), the “AA in the blood as well as liver” value was “decrease” and the “DGLA in the blood as well as liver” value was “increase”. Further, in the experiment on fat tissues of DIO mice, the “D5D mRNA expression in epididymal fat” value was “upregulated”; the “D6D mRNA expression in epididymal fat” value is given as “upregulated”; the “beige fat cell-selective genes, including Ucp1, Cidea, Elovl3, and Otop1, in subcutaneous fat” value was “no induction”; the “epididymal Lep mRNA” value is reported as “decreased”. Moreover, in the experiment with fat tissues of DIO mice (did not reach statistical difference (p = 0.08)), the “epididymal Adipoq mRNA” value is recorded as “decreased”. In addition, the “Lep mRNA in subcutaneous fat” value in the experiment with fat tissues of DIO mice (did not reach statistical significance (p = 0.08)) is “decrease”. Besides, in the experiment on fat tissues of DIO mice (not significant), the “Adgre1 expression in epididymal fat” value is “decreased” and the “Cd68 expression in epididymal fat” value is on record as “decreased”. The “Ccl2 expression in epididymal fat” value in the experiment with fat tissues of DIO mice (significant effect) is “decreased”.

Values taken from publication PMC5104425, “A Novel Selective Inhibitor of Delta-5 Desaturase Lowers Insulin Resistance and Reduces Body Weight in Diet-Induced Obese C57BL/6J Mice” (PLoS ONE, 2016).
